Assay results taken from PubChem BioAssay (NCI).
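Results reflect a 48-hour exposure of cells in 96-well plates to compound at five concentrations. Definition used: TGI = concentration required for complete inhibition of growth.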

How the values were obtained:
Assay in all cases: inhibition of tumour cell growth, NCI panel, 48 h
[1] = tested on: EKVX NSCLC
[2] = tested on: HL-60(TB) leukemia
[3] = tested on: HT29 colon
[4] = tested on: IGROV1 ovarian
[5] = tested on: K-562 leukemia
[6] = tested on: KM12 colon
[7] = tested on: LOX IMVI melanoma
[8] = tested on: LXFL 529 NSCLC
[9] = tested on: M14 melanoma
[10] = tested on: MOLT-4 leukemia
[11] = tested on: NCI-H522 lung
[12] = tested on: OVCAR-8 ovarian
[13] = tested on: SF-539 CNS
[14] = tested on: SK-OV-3 ovarian
[15] = tested on: U251 CNS
[16] = tested on: UACC-257 melanoma
[17] = tested on: HS 578T breast
[18] = tested on: MCF7 breast
[19] = tested on: MDA-MB-435
[20] = tested on: PC-3 prostate

Row | Compound | TGI [1] [µM] | TGI [2] [µM] | TGI [3] [µM] | TGI [4] [µM] | TGI [5] [µM] | TGI [6] [µM] | TGI [7] [µM] | TGI [8] [µM] | TGI [9] [µM] | TGI [10] [µM] | TGI [11] [µM] | TGI [12] [µM] | TGI [13] [µM] | TGI [14] [µM] | TGI [15] [µM] | TGI [16] [µM] | TGI [17] [µM] | TGI [18] [µM] | TGI [19] [µM] | TGI [20] [µM]
1 | CCOc1ccc(NC(=O)C2=C(C)NC(C)=C(C(=O)Nc3ccc(OCC)cc3)C2c2ccc(O)c(OC)c2)cc1 | > 100 | > 100 | > 100 | > 100 | > 100 | > 100 | > 100 | > 100 | > 100 | > 100 | > 100 | > 100 | 83.6 | > 100 | > 100 | > 100 | – | – | – | –
2 | CC(=O)O[C@]12CCCCC1C1(O)C(O)CCCCC12 (stereo not given in full) | > 100 | > 100 | > 100 | – | > 100 | > 100 | > 100 | > 100 | > 100 | > 100 | > 100 | > 100 | – | > 100 | > 100 | > 100 | – | – | – | –
3 | C#CCNC(=O)NCCCC(NC(C)=O)C(=O)NCc1ccccc1 (stereo not given) | > 100 | > 100 | > 100 | > 100 | > 100 | > 100 | > 100 | > 100 | > 100 | > 100 | > 100 | > 100 | > 100 | > 100 | > 100 | > 100 | – | – | – | –
4 | Nc1ccc2nc(NCc3ccc(F)cc3)cnc2c1 | > 100 | > 100 | > 100 | > 100 | > 100 | > 100 | > 100 | > 100 | > 100 | > 100 | > 100 | > 100 | > 100 | – | > 100 | – | – | – | – | –
5 | CCCOC(=O)C1CCC(=O)N1C(=O)C(C)Cl (stereo not given) | > 100 | > 100 | > 100 | > 100 | > 100 | > 100 | > 100 | > 100 | > 100 | > 100 | > 100 | > 100 | – | > 100 | > 100 | > 100 | – | – | – | –
6 | O=C1[C@@H]2C(c3ccc(Cl)cc3Cl)=NO[C@@H]2C(=O)N1c1ccc(Cc2ccc(N3C(=O)[C@H]4C(c5ccc(Cl)cc5Cl)=NO[C@H]4C3=O)cc2)cc1 | > 100 | 48.8 | > 100 | > 100 | > 100 | > 100 | > 100 | 52.2 | > 100 | > 100 | – | > 100 | > 100 | > 100 | – | > 100 | – | – | – | –
7 | N#CCCN(c1ccc(/C=C2\N=C(Cc3ccccc3)OC2=O)cc1)S(=O)(=O)c1ccccc1 | > 100 | > 100 | > 100 | > 100 | > 100 | > 100 | > 100 | > 100 | > 100 | > 100 | > 100 | > 100 | > 100 | > 100 | > 100 | > 100 | – | – | – | –
8 | CN(C)CCC(O)(c1ccccc1)C(O)(CCN(C)C)c1ccccc1 (stereo not given) | > 100 | – | > 100 | > 100 | > 100 | > 100 | – | > 100 | 32.8 | > 100 | > 100 | > 100 | – | > 100 | > 100 | 56.7 | – | – | – | –
9 | CCOCN1COCN=C1NC#N | > 100 | > 100 | > 100 | > 100 | > 100 | > 100 | – | > 100 | > 100 | > 100 | > 100 | > 100 | > 100 | > 100 | > 100 | > 100 | – | – | – | –
10 | Nc1nc(NCCO)c(N=O)c(=O)[nH]1 | > 100 | > 100 | > 100 | > 100 | > 100 | > 100 | > 100 | > 100 | > 100 | – | > 100 | > 100 | > 100 | > 100 | > 100 | > 100 | – | – | – | –
11 | Cc1ccccc1C1OC(=O)c2ccccc21 (stereo not given) | > 100 | > 100 | > 100 | > 100 | > 100 | > 100 | > 100 | > 100 | > 100 | > 100 | > 100 | > 100 | > 100 | > 100 | > 100 | – | – | – | – | –
12 | CCOc1ccc(NC(=O)C(=O)NO)cc1 | > 100 | > 100 | > 100 | > 100 | > 100 | > 100 | > 100 | > 100 | > 100 | > 100 | > 100 | > 100 | > 100 | > 100 | > 100 | > 100 | – | – | – | –
13 | CCCCCCCc1cc(OC(=O)c2c(C)cc(OC)cc2O)cc(O)c1C(=O)O | 77 | 68.3 | > 100 | 55.3 | > 100 | 46.2 | 48.7 | 34 | 36.6 | 88.3 | 48.3 | 77.9 | 32.6 | 69.2 | 32.1 | 87.7 | – | – | – | –
14 | COC(=O)C1CCC(Nc2ccc(C)cc2C)=N1 (stereo not given) | > 100 | > 100 | > 100 | > 100 | > 100 | > 100 | > 100 | > 100 | > 100 | > 100 | > 100 | > 100 | – | > 100 | > 100 | > 100 | – | – | – | –
15 | NC(=O)c1cccc(C2OC(COP(=O)(O)O)C(O)C2O)c1 (stereo not given) | > 50 | > 50 | > 50 | > 50 | > 50 | > 50 | > 50 | > 50 | > 50 | > 50 | > 50 | > 50 | > 50 | > 50 | > 50 | > 50 | – | – | – | –
16 | COC(=O)CC1C(COC(C)=O)OC(n2cc(C)c(=O)[nH]c2=O)C1OC(C)=O (stereo not given) | > 100 | > 100 | > 100 | > 100 | > 100 | > 100 | > 100 | – | > 100 | > 100 | > 100 | > 100 | > 100 | > 100 | > 100 | > 100 | > 100 | > 100 | > 100 | > 100
